Measured values as given in ChEMBL document CHEMBL1124537, “The importance of the orientation of the C9 substituent to cannabinoid activity” (J Med Chem, 1989).
Activity calls are given as the source filed them. The calls are words filed in the database; no cut-off is given here.

Assays:
Type in all cases: functional, organism-based
Settings in all cases: Cercopithecidae
Monkey [1] = experiment: Compound was tested for activity in rhesus monkey behavioral test; Minimal activity
Monkey [2] = experiment: Compound was tested for activity in rhesus monkey behavioral test; Active
Monkey [3] = experiment: Compound was tested for activity in rhesus monkey behavioral test; Inactive

With `CCCCCc1cc(O)c2c(c1)OC(C)(C)C1CC[C@@H](C)CC21` (stereo partly specified) the Activity (Monkey [1]) was “Minimal activity”.

With `CCCCCc1cc(O)c2c(c1)OC(C)(C)C1CC[C@H](C)CC21` (stereo partly specified) the Activity (Monkey [2]) was “Active”.

In the case of `CCCCCc1cc(O)c2c(c1)OC(C)(C)[C@@H]1CC=C(C)C[C@@H]21`, the Activity (Monkey [2]) is reported as “Active”.

`CCCCCc1cc(O)c2c(c1)OC(C)(C)[C@@H]1CCC(C)=C[C@@H]21` was tested, and the Activity (Monkey [2]) was “Active”.

In the case of `CCCCCc1cc(O)c2c(c1)OC(C)(C)C1C=C[C@H](C)CC21` (stereo partly specified), the Activity (Monkey [3]) is reported as “inactive”.

With `C=C1CCC2C(C1)c1c(O)cc(CCCCC)cc1OC2(C)C` (stereo unspecified) the Activity (Monkey [3]) was “inactive”.
